“Also recorded” adds a separate entry of the source. Read-outs that look alike come from different tables or passages of the source.
Biological target: T1, human wild-type (WT)-pendrin (Homo sapiens, UniProt O43511)
T1 construct: expressed in transfected cells
T1 sequence (O43511 1-780): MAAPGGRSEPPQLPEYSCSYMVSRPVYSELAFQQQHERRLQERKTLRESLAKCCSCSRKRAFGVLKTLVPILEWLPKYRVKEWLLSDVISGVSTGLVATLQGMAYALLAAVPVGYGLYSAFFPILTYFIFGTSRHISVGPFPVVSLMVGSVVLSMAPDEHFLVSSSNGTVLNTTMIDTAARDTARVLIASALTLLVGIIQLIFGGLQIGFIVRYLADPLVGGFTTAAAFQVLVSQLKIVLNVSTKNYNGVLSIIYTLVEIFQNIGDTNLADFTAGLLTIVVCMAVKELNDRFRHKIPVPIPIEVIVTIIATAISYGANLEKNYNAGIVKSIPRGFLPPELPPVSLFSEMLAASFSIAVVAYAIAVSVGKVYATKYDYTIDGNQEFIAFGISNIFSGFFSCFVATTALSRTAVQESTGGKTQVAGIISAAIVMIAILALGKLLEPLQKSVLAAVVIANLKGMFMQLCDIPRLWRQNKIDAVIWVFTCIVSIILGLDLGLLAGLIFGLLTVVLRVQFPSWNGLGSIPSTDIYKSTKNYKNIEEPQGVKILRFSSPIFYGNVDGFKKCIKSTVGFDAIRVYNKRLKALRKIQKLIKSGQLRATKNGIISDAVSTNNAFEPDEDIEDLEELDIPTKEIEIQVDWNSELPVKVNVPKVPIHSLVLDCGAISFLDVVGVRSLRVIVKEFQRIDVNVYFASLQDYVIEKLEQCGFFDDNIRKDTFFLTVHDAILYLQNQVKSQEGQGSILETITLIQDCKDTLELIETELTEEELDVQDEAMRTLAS
Assay: Pendrin-mediated Cl^−/I^− exchange activity, YFP fluorescence in CHO-K1 cells
Assay type: cell-based
Conditions: for inhibition at 30 µM: CHO-K1, 30 μM, read-out: Pendrin inhibitory activity at 30 μM (%); for inhibition of pendrin Cl^−/I^− exchange activity: CHO-K1 cells, pretreated 10 minutes

[1] = compounds showing pendrin inhibitory activity of 50% or more at 30 μM, read-out: IC50

CC(C)(C)c1ccc(C2=NC(=Cc3cccs3)C(=O)O2)cc1 [F56, 2-(4-(tert-butyl)phenyl)-4-(thiophen-2-ylmethylene)oxazol-5(4H)-one]
inhibition at 30 µM: 84.7%
inhibition of pendrin Cl^−/I^− exchange activity: significantly inhibited; also recorded: strongly inhibited
IC50 (FIG. 4(a), read-out: 50% inhibition of Cl^−/I^− exchange activity): ~3 µM
IC50 [1]: 3.3 ± 0.64 µM

CC(C)(C)c1ccc(C2=NC(=Cc3ccc[nH]3)C(=O)O2)cc1 [F10, 4-((1H-pyrrol-2-yl)methylene)-2-(4-(tert-butyl)phenyl)oxazol-5 (4H)-one]
inhibition at 30 µM: 100%
inhibition of pendrin Cl^−/I^− exchange activity: strongly inhibit
IC50 (FIG. 4(b), read-out: inhibitory effect on the Cl—/I— exchange activity: IC50): ~0.08 µM
IC50 [1]: 0.08 ± 0.02 µM
